Data from US10899754B2, “Modulators of indoleamine 2,3-dioxygenase” (GLAXOSMITHKLINE INTELLECTUAL PROPERTY DEVELOPMENT LIMITED, priority 2016, dated 2021).

What was measured:
Format in all cases: cell-based
[1] = tested on: human epithelial HeLa cells; test: HeLa cytotoxicity assay (CellTiter-Glo); conditions: pCC50
Method in brief: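 Read-out is CellTiter-Glo luminescence after 2 days at 37 °C, on IFN-γ-stimulated (10 nM) HeLa cells seeded at 5,000/well with compounds in 11-point 3-fold dose series. pCC50 from four-parameter curve fit; wells without cells set 100% cytotoxicity, stimulated cells with DMSO set 0%.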

[2] = tested on: human peripheral blood mononuclear cells (PBMC); test: PBMC cytotoxicity assay (CellTiter-Glo); conditions: 2 days, pCC50
Method in brief: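 % cytotoxicity was taken from CellTiter-Glo luminescence, using wells without cells and stimulated DMSO wells as references, and fitted by four-parameter curve to give XC50. Cells were human PBMC at 50,000 per well, activated with 100 ng/ml IFN-γ plus 50 ng/ml LPS. Incubation with 11-point, 3-fold dilution series ran for 2 days at 37 °C.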

[3] = target: T1, indoleamine 2, 3-dioxygenase (IDO1) (Homo sapiens, UniProt P14902); test: IDO1 HeLa RapidFire MS assay (kynurenine detection by mass spectrometry); set-up: to induce the expression of indoleamine 2, 3-dioxygenase (IDO1); conditions: HeLa cells, pIC50, read-out: IDO1_HELA_PXC50 (converted)
Method in brief: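 Compound potency reported as pIC50 from kynurenine/internal-standard ratio (RapidFire MS) in supernatant of IFN-γ-induced (10 nM) HeLa cells, 5,000 per well, after 2 days' treatment with 11-point dilutions. Cytotoxicity in the same format by luminescent ATP detection, reported as pCC50.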

[4] = target: T1, indoleamine 2, 3-dioxygenase (IDO1); test: IDO1 PBMC RapidFire MS assay (kynurenine detection by mass spectrometry); set-up: to induce the expression of indoleamine 2, 3-dioxygenase (IDO1); host or cells: human PBMC stimulated with IFN-gamma and LPS; conditions: human PBMC stimulated with IFN-γ and LPS, 2 days, pIC50, read-out: PBMC PXC50 (converted)
Method in brief: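 Kynurenine output, read by RapidFire mass spectrometry as ratio to an internal standard, was measured after 2-day compound exposure (11-point, 3-fold dilutions) of human PBMCs induced with 100 ng/ml IFN-γ and 50 ng/ml LPS. Cell viability tracked alongside via ATP luminescence; XC50 from curve fitting.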

T1 sequence (P14902 whole entry): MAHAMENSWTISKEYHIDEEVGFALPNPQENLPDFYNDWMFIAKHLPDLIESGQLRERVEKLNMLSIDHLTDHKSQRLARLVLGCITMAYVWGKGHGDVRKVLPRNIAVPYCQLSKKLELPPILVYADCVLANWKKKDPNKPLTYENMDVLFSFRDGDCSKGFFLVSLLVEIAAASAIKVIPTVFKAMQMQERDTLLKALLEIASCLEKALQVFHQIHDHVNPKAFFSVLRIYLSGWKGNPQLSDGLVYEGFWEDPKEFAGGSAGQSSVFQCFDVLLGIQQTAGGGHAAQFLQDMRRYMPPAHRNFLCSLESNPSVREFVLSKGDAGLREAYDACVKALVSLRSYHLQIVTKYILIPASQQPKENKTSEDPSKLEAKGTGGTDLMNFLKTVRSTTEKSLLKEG

Row | Structure (SMILES) | IC50 [3] [nM] | IC50 [4] [nM] | HELA_IDO1_TOX_PXC50 [1] | PBMC TOX PXC50 [2]
1 | COc1ncc(Nc2cc([C@H](C)CC(=O)O)ccc2N(CC(C)C)C2CCOCC2)cn1 [Example 15, (R)-3-(4-(isobutyl(tetrahydro-2H-pyran-4-yl)amino)-3-((2-methoxypyrimidin-5-yl)amino)phenyl)butanoic Acid] | 7.94 | 3.16 | <5 | <5
2 | CC(C)CN(CC(C)C)c1ccc(C(C)CC(=O)O)cc1Nc1ncccn1 (stereo not shown) [example 156, 3-{4-[bis(2-methylpropyl)amino]-3-[(pyrimidin-2-yl)amino]phenyl}butanoic acid] | > 10000 | 7940 | <5 | <5
3 | CC(C)CN(c1ccc([C@H](C)CC(=O)O)cc1Nc1cnc(C#N)cn1)C1CCOCC1 [Example 19, (R)-3-(3-((5-cyanopyrazin-2-yl)amino)-4-(isobutyl(tetrahydro-2H-pyran-4-yl)amino)phenyl)butanoic Acid] | 5.01 | 2.51 | <5 | <5
4 | CO[C@H]1CC[C@H](N(CC(C)C)c2ccc(-c3ccccc3C(=O)O)cc2Nc2nc(C(F)(F)F)ns2)CC1 [Example 111, 4′-(isobutyl((1r,4r)-4-methoxycyclohexyl)amino)-3′-((3-(trifluoromethyl)-1,2,4-thiadiazol-5-yl)amino)-[1,1′-biphenyl]-2-carboxylic Acid] | 10 | 3.98 | <5 | <5
5 | CC(C)CN(c1cc(F)c([C@H](C)CC(=O)O)cc1Nc1ccc(Cl)nc1)C1CCOCC1 [Example 37, (R)-3-(5-((6-chloropyridin-3-yl)amino)-2-fluoro-4-(isobutyl(tetrahydro-2H-pyran-4-yl)amino)phenyl)butanoic Acid] | 5.01 | 1.26 | <5 | <5
6 | CC(C)CN(CC(C)C)c1ccc(-c2ccccc2C(=O)O)cc1Nc1nc(C2CC2)ns1 [example 288, 4′-[bis(2-methylpropyl)amino]-3′-[(3-cyclopropyl-1,2,4-thiadiazol-5-yl)amino]-[1,1′-biphenyl]-2-carboxylic acid] | 316 | 100 | <5 | <5
7 | COCc1ccc(Nc2cc([C@H](C)CC(=O)O)ccc2N(CC(C)C)C2CCOCC2)cn1 [Example 31, (R)-3-(4-(isobutyl(tetrahydro-2H-pyran-4-yl)amino)-3-((6-(methoxymethyl)pyridin-3-yl)amino)phenyl)butanoic Acid] | 20 | 10 | 5 | <5
8 | CC(C)CN(c1ccc(-c2ccccc2C(=O)O)cc1Nc1nc(C(F)(F)F)ns1)[C@H]1CC[C@@H](O)CC1 [example 279, 4′-[(2-methylpropyl)[(1s,4s)-4-hydroxycyclohexyl]amino]-3′-{[3-(trifluoromethyl)-1,2,4-thiadiazol-5-yl]amino}-[1,1′-biphenyl]-2-carboxylic acid] | 100 | 20 | <5 | <5
9 | CC(C)CN(CC(C)C)c1ccc(C(C)CC(=O)O)cc1NC1CCCCC1 (stereo not shown) [example 157, 3-{4-[bis(2-methylpropyl)amino]-3-(cyclohexylamino)phe-nyl}butanoic acid] | 1000 | 794 | <5 | <5

Further lines, with some results ahead:

Row | IC50 [3] [nM] | IC50 [4] [nM] | Structure (SMILES) | HELA_IDO1_TOX_PXC50 [1] | PBMC TOX PXC50 [2]
10 | 3.98 | 1.26 | CC(C)CN(c1ccc([C@H](C)CC(=O)O)cc1Nc1cnc(Cl)cn1)[C@H]1CC[C@H](O)CC1 [Example 45, (R)-3-(3-((5-chloropyrazin-2-yl)amino)-4-(((1r,4R)-4-hydroxycyclohexyl) (isobutyl)amino)phenyl)butanoic Acid] | <5 | <5
11 | 794 | 200 | COCc1nnc(Nc2cc([C@H](C)CC(=O)O)ccc2N(CC(C)C)C2CCOCC2)[nH]1 [example 213, (3R)-3-(3-{[5-(methoxymethyl)-4H-1,2,4-triazol-3-yl]amino}-4-[(2-methylpropyl)(oxan-4-yl)amino]phenyl)butanoic acid] | <5 | <5
12 | 6.31 | 5.01 | CC(C)CN(c1ccc([C@H](C)CC(=O)O)cc1Nc1nc(C2CC2)ns1)C1CCOCC1 [Example 28, (R)-3-(3-((3-cyclopropyl-1,2,4-thiadiazol-5-yl)amino)-4-(isobutyl(tetrahydro-2H-pyran-4-yl)amino)phenyl)butanoic Acid] | <5 | <5
13 | > 10000 | > 10000 | CC(C)CN(c1ccc(C(C)CC(=O)O)cc1NCc1ncccn1)C1CCCCC1 (stereo not shown) [example 160, 3-{4-[cyclohexyl(2-methylpropyl)amino]-3-{[(pyrimidin-2-yl)methyl]amino}phenyl} butanoic acid] | <5 | <5
14 | 2000 | 3160 | CC(C)CN(c1ccc(C(C)CC(=O)O)cc1NC1=NC(=O)[C@@H](C)N1)C1CCCCC1 (stereo partly drawn) [example 163, 3-{4-[cyclohexyl(2-methylpropyl)amino]-3-{[(5R)-5-methyl-4-oxo-4,5-dihydro-1H-imidazol-2-yl]amino}phenyl}butanoic acid] | <5 | <5
15 | 7.94 | 5.01 | CC(C)CN(c1ccc([C@H](C)Cc2nnn[nH]2)cc1Nc1nc(Cl)ns1)C1CCCCC1 [Example 102, (R)-4-(1-(1H-tetrazol-5-yl)propan-2-yl)-N^2-(3-chloro-1,2,4-thiadiazol-5-yl)-N^1-cyclohexyl-N^1-isobutylbenzene-1,2-diamine] | <5 | <5
16 | 20 | 25.1 | CC(C)CN(c1ccc(C(C)OCC(=O)O)cc1Nc1nc2ccccc2[nH]1)C1CCCCC1 (stereo not shown) [example 173, 2-(1-{3-[(1H-1,3-benzodiazol-2-yl)amino]-4-[cyclohexyl(2-methylpropyl)amino]phenyl}ethoxy)acetic acid] | <5 | <5
17 | 3.16 | 1.58 | CC(C)CN(c1ccc(C(C)CC(=O)O)cc1Nc1nc(C(F)(F)F)ns1)C1CCOCC1 (stereo not shown) [example 202, 3-{4-[(2-methylpropyl)(oxan-4-yl)amino]-3-{[3-(trifluoromethyl)-1,2,4-thiadiazol-5-yl]amino}phenyl}butanoic acid] | <5 | <5
18 | 1000 | 398 | CC(C)CN(c1ccc(C(C)CC(=O)O)cc1NCc1ccc(F)c(F)c1)C1CCCCC1 (stereo not shown) [example 162, 3-{4-[cyclohexyl(2-methylpropyl)amino]-3-{[(3,4-difluorophenyl)methyl]amino}phenyl}butanoic acid] | <5 | <5
19 | 50.1 | 39.8 | CC(C)CN(c1ccc([C@H](C)CC(=O)O)cc1Nc1nnc(C2CC2)[nH]1)C1CCOCC1 [example 210, (3R)-3-{3-[(5-cyclopropyl-4H-1,2,4-triazol-3-yl)amino]-4-[(2-methylpropyl)(oxan-4-yl)amino]phenyl}butanoic acid] | <5 | <5
20 | 20 | 5.01 | CC(C)CN(c1ccc([C@H](C)CC(=O)O)cc1Nc1nc(C(F)(F)F)ns1)C1CCN(S(C)(=O)=O)CC1 [Example 71] | <5 | <5
21 | 2.51 | 2.51 | CC(C)CN(c1ccc([C@H](C)CC(=O)O)cc1Nc1nc(C(F)(F)F)cs1)C1CCOCC1 [Example 22, (R)-3-(4-(Isobutyl(tetrahydro-2H-pyran-4-yl)amino)-3-((4-(trifluoromethyl)thiazol-2-yl)amino)phenyl)butanoic Acid] | <5 | <5
22 | 3.16 | 2.51 | CC(C)CN(c1ccc(C2CC2C(=O)O)cc1Nc1nc(C(F)(F)F)ns1)C1CCCCC1 (single isomer, unassigned) [Example 104, 2-(4-(cyclohexyl(isobutyl)amino)-3-((3-(trifluoromethyl)-1,2,4-thiadiazol-5-yl)amino)phenyl)cyclopropanecarboxylic Acid] | <5 | <5
